Measurements: PMC7326642 (Current computer-aided drug design, 2021)

Legend:
[1] = biological target: Cyclin A2-CDK2 kinase enzyme (Homo sapiens, UniProt P20248+P24941); assay: ADP-Glo Kinase Assay, screening at 0, 1 and 10 μM; format: biochemical; details: for kinase activity reduced to: remaining CDK2 kinase activity
cyclin A2-CDK2 complex = cyclin A2-CDK2 complex (Homo sapiens, UniProt P20248+P24941); assay: dose response in the in vitro biochemical kinase assay; details: 0 nM to 100 μM, room temperature

| Structure (SMILES) | effect on kinase activity (in words) ([1]; 10 μM compound) | also measured |
| --- | --- | --- |
| Cc1cc(Br)ccc1Nc1nc(N)nc(N)c1N=O [NSC66578] | weakly activated CDK2 activity | – |
| N#Cc1c(Nc2ccc(Br)cc2)[nH]c(=O)[nH]c1=O [NSC73380] | weakly activated CDK2 activity | – |
| N#Cc1c(N)nc(N)nc1Nc1ccc(Br)cc1 [compound 1] | – | IC50 (cyclin A2-CDK2 complex): 6.5 µM; effect on kinase activity (in words) ([1]; 1 μM compound): no significant effect; kinase activity reduced to ([1]; 10 μM compound): 58% |
| NC(=S)c1cn(C2OC(CO)C(O)C2O)c2ncnc(N)c12 (centres unmarked) [compound 2] | did not further reduce the kinase activity | IC50 (cyclin A2-CDK2 complex): 0.0076 µM; kinase activity reduced to ([1]; 1 μM compound): 43% |

The next lines start with results.

| effect on kinase activity (in words) ([1]; 10 μM compound) | Structure (SMILES) | also measured |
| --- | --- | --- |
| weakly activated CDK2 activity | Cc1ccc(Nc2nc(N)nc(N)c2N=O)cc1 [NSC49876] | – |
| weakly activated CDK2 activity | CCc1c(N)nc(N)nc1Nc1ccc(Cl)c(Cl)c1 [NSC50590] | – |
| weakly activated CDK2 activity | NC(=O)c1c(Nc2ccc(Br)cc2)[nH]c(=O)[nH]c1=O [NSC73381] | – |
